This test deals with BDF1 mice, P388 leukemia ip, median survival T/C. Put plainly: NCI In Vivo Anticancer Drug Screen. Data for tumor model P388 Leukemia (intraperitoneal) in B6D2F1 (BDF1) mice. The note with it: endpoint: median survival time, higher = longer survival. The essentials:
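Vehicle-dosed animals serve as the reference; survival of compound-dosed, tumour-implanted mice is divided by it.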

[1] abbreviates: dose: 6.25 mg/kg/injection, schedule: Q01DX009 (ip), vehicle: saline.
Setting [2] is: dose: 12.5 mg/kg/injection, schedule: Q01DX009 (ip), vehicle: saline.
Where [3] appears, read: dose: 25.0 mg/kg/injection, schedule: Q01DX009 (ip), vehicle: saline.
Setting [4] is: dose: 50.0 mg/kg/injection, schedule: Q01DX009 (ip), vehicle: saline with Tween-80.
Setting [5] is: dose: 100.0 mg/kg/injection, schedule: Q01DX009 (ip), vehicle: saline with Tween-80.
Where [6] appears, read: dose: 200.0 mg/kg/injection, schedule: Q04DX003 (ip), vehicle: saline sonified.
Setting [7] is: dose: 100.0 mg/kg/injection, schedule: Q04DX003 (ip), vehicle: Klucel (hydroxypropylcellulose) (HPC).
[8] abbreviates: dose: 200.0 mg/kg/injection, schedule: Q04DX003 (ip), vehicle: Klucel (hydroxypropylcellulose) (HPC).
The mark [9] stands for this setting: dose: 12.5 mg/kg/injection, schedule: Q04DX003 (ip), vehicle: saline.
Setting [10] is: dose: 200.0 mg/kg/injection, schedule: Q01DX009 (ip), vehicle: saline with Tween-80.
The mark [11] stands for this setting: dose: 400.0 mg/kg/injection, schedule: Q01DX009 (ip), vehicle: saline with Tween-80.
Where [12] appears, read: dose: 100.0 mg/kg/injection, schedule: Q04DX003 (ip), vehicle: saline with Tween-80.
Where [13] appears, read: dose: 200.0 mg/kg/injection, schedule: Q04DX003 (ip), vehicle: saline with Tween-80.
Setting [14] is: dose: 400.0 mg/kg/injection, schedule: Q04DX003 (ip), vehicle: saline with Tween-80.

We go through 23 compounds from PubChem BioAssay AID328 (DTP/NCI, 2004).

Structures are written as SMILES. “And” between values parts separate entries of the source, which are not always exact repeats. Equal entries are not always repeated. Inconclusive results and toxic doses are left out.

For the compound `O=[N+]([O-])c1ccc(N2CCOCC2)c2c1no[n+]2[O-]`, the T/C under setting [1] is 95 % of control; the T/C under setting [2] was 100 % of control; the T/C under setting [3] was 108 % of control; the T/C (dose: 32.0 mg/kg/injection, schedule: Q04DX003 (ip), vehicle: saline with Tween-80) is 150 % of control; the T/C (dose: 64.0 mg/kg/injection, schedule: Q04DX003 (ip), vehicle: saline with Tween-80) was 160 % of control.
As for `OC(COc1cccc(C(F)(F)F)c1)CN1CCN(c2ccc(F)cc2)CC1` (configuration not stated), the T/C was 96 % of control (dose: 25.0 mg/kg/injection, schedule: Q01DX009 (ip), vehicle: saline with Tween-80); 96 % of control under setting [4]; 118 % of control under setting [5].
Regarding `CSc1nc(NN(C)C)c2[nH]c(C)nc2n1`, the T/C reads like this: (dose: 0.78 mg/kg/injection, schedule: Q01DX009 (ip), vehicle: saline with Tween-80) 97 % of control; (dose: 1.56 mg/kg/injection, schedule: Q01DX009 (ip), vehicle: saline with Tween-80) 116 % of control; (dose: 3.13 mg/kg/injection, schedule: Q01DX009 (ip), vehicle: saline with Tween-80) 111 % of control; (dose: 6.25 mg/kg/injection, schedule: Q01DX009 (ip), vehicle: saline with Tween-80) 87 % of control.
`Nc1ccc(C(=O)Nc2ccc(Nc3ccncc3)cc2)c([N+](=O)[O-])c1`: the T/C under setting [2] is 97 % of control; the T/C under setting [3] was 97 % of control; the T/C (dose: 50.0 mg/kg/injection, schedule: Q01DX009 (ip), vehicle: saline) was 119 % of control; the T/C (dose: 50.0 mg/kg/injection, schedule: Q04DX003 (ip), vehicle: saline) is 94 % of control; the T/C (dose: 75.0 mg/kg/injection, schedule: Q01DX009 (ip), vehicle: saline) is 90 % of control; the T/C (dose: 100.0 mg/kg/injection, schedule: Q01DX009 (ip), vehicle: saline) is 108 % of control. Further, the T/C is, setting by setting: (dose: 100.0 mg/kg/injection, schedule: Q04DX003 (ip), vehicle: saline) 100 % of control; (dose: 200.0 mg/kg/injection, schedule: Q01DX009 (ip), vehicle: saline) 111 % of control; (dose: 200.0 mg/kg/injection, schedule: Q04DX003 (ip), vehicle: saline) 92 % of control; (dose: 400.0 mg/kg/injection, schedule: Q01DX009 (ip), vehicle: saline) 111 % of control; (dose: 400.0 mg/kg/injection, schedule: Q04DX003 (ip), vehicle: saline) 92 % of control.
Consider `CC(=O)c1cc(C)[nH]c1C`, for which the T/C was 115 % of control under setting [6] and 100 % of control (dose: 400.0 mg/kg/injection, schedule: Q04DX003 (ip), vehicle: saline sonified).
`CC1CC(C)(C)N=C(C(C)CC(C)(C)C)O1` (configuration not stated): the T/C runs as follows: (dose: 50.0 mg/kg/injection, schedule: Q04DX003 (ip), vehicle: saline sonified) 90 % of control; (dose: 100.0 mg/kg/injection, schedule: Q04DX003 (ip), vehicle: saline sonified) 100 % of control; under setting [6], 100 % of control.
For the compound `COC(=O)c1c(I)cccc1[N+](=O)[O-]`, the T/C is 91 % of control under setting [7]; 95 % of control under setting [8]; 100 % of control (dose: 400.0 mg/kg/injection, schedule: Q04DX003 (ip), vehicle: Klucel (hydroxypropylcellulose) (HPC)).
For the compound `O=c1[nH]c(=S)c2c3c(sc2[nH]1)CCCC3`, the T/C is, setting by setting: (dose: 75.0 mg/kg/injection, schedule: Q04DX003 (ip), vehicle: saline sonified) 100 % of control; (dose: 150.0 mg/kg/injection, schedule: Q04DX003 (ip), vehicle: saline sonified) 100 % of control; (dose: 300.0 mg/kg/injection, schedule: Q04DX003 (ip), vehicle: saline sonified) 100 % of control.
Consider `CC1NCCNCCNCCNC(C)c2cccc1n2` (configuration not stated), for which the T/C reads like this: under setting [1], 118 % of control; under setting [2], 106 % of control; under setting [3], 118 % of control.
With `O=C(O)CN(Cc1ccccc1)Sc1ccccc1[N+](=O)[O-]`, the T/C by setting is: (dose: 25.0 mg/kg/injection, schedule: Q04DX003 (ip), vehicle: other) 105 % of control; (dose: 50.0 mg/kg/injection, schedule: Q04DX003 (ip), vehicle: other) 117 % of control; (dose: 200.0 mg/kg/injection, schedule: Q04DX003 (ip), vehicle: other) 117 % of control.
Regarding `OCCN1CCN(CCCN2c3ccccc3Sc3ccc(C(F)(F)F)cc32)CC1`, the T/C is 86 % of control (dose: 0.31 mg/kg/injection, schedule: Q01DX009 (ip), vehicle: saline); 90 % of control (dose: 0.62 mg/kg/injection, schedule: Q01DX009 (ip), vehicle: saline); 86 % of control (dose: 0.82 mg/kg/injection, schedule: Q01DX009 (ip), vehicle: saline); 113 % of control (dose: 1.25 mg/kg/injection, schedule: Q01DX009 (ip), vehicle: saline); 105 % of control under setting [9].
In the case of `COc1ccc2[nH]c3cc(Cl)ccc3c(=O)c2c1`, the T/C was 100 % of control under setting [5], 100 % of control under setting [10] and 90 % of control under setting [11].
Consider `CCn1c(O)c(N=NC(=S)NC)c2ccccc21`, for which, under “dose: 37.5 mg/kg/injection, schedule: Q01DX009 (ip), vehicle: saline with Tween-80”, the T/C was 86 % of control.
As for `COc1ccc(C(=O)CC(C#N)c2ccc3c(c2)OCO3)cc1OC` (configuration not stated), the T/C runs as follows: under setting [5], 90 % of control; under setting [10], 100 % of control; under setting [11], 95 % of control.
Take `Cc1ccc(C(C#N)Nc2ccccc2)cc1` (configuration not stated): the T/C is, setting by setting: under setting [5], 100 % of control; under setting [12], 100 % of control; under setting [10], 115 % of control; under setting [13], 100 % of control; under setting [11], 100 % of control; under setting [14], 104 % of control.
`C[N+]1=C2CCCC2=C(N)CC1`: the T/C reads like this: under setting [1], 110 % of control; under setting [2], 115 % of control; under setting [9], 95 % of control; under setting [3], 100 % of control; (dose: 25.0 mg/kg/injection, schedule: Q04DX003 (ip), vehicle: saline) 100 % of control.
As for `Cc1cc(C)[s+]s1`, the T/C runs as follows: (dose: 0.78 mg/kg/injection, schedule: Q01DX009 (ip), vehicle: water) 91 % of control; (dose: 3.12 mg/kg/injection, schedule: Q01DX009 (ip), vehicle: water) 97 % of control; (dose: 6.25 mg/kg/injection, schedule: Q01DX009 (ip), vehicle: water) 91 % of control.
Turning to `O=NN(CCCl)C(=O)Nc1ccc2[nH]c3ccccc3c2c1`, the T/C by setting is: (dose: 30.0 mg/kg/injection, schedule: Q01DX009 (ip), vehicle: Klucel (hydroxypropylcellulose) (HPC)) 183 % of control; (dose: 45.0 mg/kg/injection, schedule: Q01DX009 (ip), vehicle: Klucel (hydroxypropylcellulose) (HPC)) 175 % of control; (dose: 65.0 mg/kg/injection, schedule: Q01DX009 (ip), vehicle: Klucel (hydroxypropylcellulose) (HPC)) 183 % of control and 192 % of control; (dose: 130.0 mg/kg/injection, schedule: Q01DX009 (ip), vehicle: Klucel (hydroxypropylcellulose) (HPC)) 208 % of control.
In the case of `O=[N+]([O-])c1ccc(O)c(C2N(Cc3ccc(N(CCCl)CCCl)cc3)CCCN2Cc2ccc(N(CCCl)CCCl)cc2)c1`, the T/C runs as follows: (dose: 12.5 mg/kg/injection, schedule: Q01DX010 (ip), vehicle: carboxymethylcellulose (CMC)) 120 % of control; (dose: 25.0 mg/kg/injection, schedule: Q01DX010 (ip), vehicle: carboxymethylcellulose (CMC)) 120 % of control; (dose: 100.0 mg/kg/injection, schedule: Q01DX010 (ip), vehicle: carboxymethylcellulose (CMC)) 165 % of control.
Turning to `CCc1c(C(OC)OC)[nH]c(=S)[nH]c1=O`, the T/C under setting [12] was 91 % of control, the T/C under setting [13] was 91 % of control and the T/C under setting [14] was 87 % of control.
As for `C[As](C)SCC1OC2OC(C)(C)OC2C2OC(C)(C)OC12` (configuration not stated), the T/C under setting [4] was 110 % of control and 123 % of control.
Consider `CC(=O)c1nc2c(N)nc(N)nc2nc1C`, for which the T/C runs as follows: under setting [12], 92 % of control; under setting [13], 111 % of control; under setting [14], 106 % of control.
For the compound `CCCCCCCCCCCCCCCC(=O)OCC1OC(CO)(OC2OC(CO)C(O)C(O)C2O)C(O)C1O` (configuration not stated), the T/C reads like this: under setting [7], 104 % of control; under setting [8], 112 % of control.
